Several values for one entry are separate records, joined by “and”; a condition that tells them apart may be missing. Equal entries are not always repeated. Where two headings read alike, the source gives them in different places.
What was measured:
[1] = test system: neuroblastoma SH-SY5Y cells; assay: Neurotoxicity in SH-SY5Y (MTS and LDH assays); type: cell-based, human; conditions: 100 μM, 48 h, vs control cells
Description: Human neuroblastoma cell line SH-SY5Y (ATCC® no. CRL-2266™) was used for neurotoxicity evaluation. […] To perform dose–response analysis, 2-fold serial dilutions (12 points) were prepared. Treatment with compounds was performed for 48 h. After the incubation time, 100μL of culture medium was transferred to black well plates to examined membrane integrity using the CytoTox-ONE™ Homogeneous Membrane Integrity Assay (Promega, Madison, WI, USA) following the manufacturer’s protocol. Briefly, a volume of 100 µL CytoTox-ONE™ reagent was added to each well and carefully mixed under gentle shaking. […] The plate was incubated at room temperature for 15 min and the fluorescence was then recorded at an excitation wavelength of 560 nm and an emission wavelength of 590 nm using the microplate reader EnSpire (PerkinElmer, Waltham, MA, USA). […] Cytotoxicity is expressed as a percentage relative to the positive control, which is assumed to be responsible for 100% LDH release.
The cell viability was examined using an MTS-based [3-(4,5-dimethylthiazol-2-yl)-5-(3-carboxymethoxyphenyl)-2-(4-sulfophenyl)-2 H tetrazolium] […] After incubation time, formazan product turnover absorbance was measured at 490 nm using the microplate reader EnSpire (PerkinElmer, Waltham, MA, USA). […]

[2] = Pharmacokinetics and tissue distribution in rats; type: in vivo, rat; conditions: for MRT / CL/F / Vz/F: rat serum; for MRT / half-life / Tmax / CL/F / Cmax / AUC(0-t) / AUC(0-inf) / Vz/F / AUC0-t, brain / AUC0-t, liver / AUC0-t, lungs / Cmax, heart / Cmax, kidneys / Cmax, liver / Cmax, lungs / AUC0-t, heart / AUC0-t, kidneys / Cmax, brain / t1/2λz, serum: 0.3 mg/kg i.p.; for Kp: intraperitoneal; for Cmax / AUC(0-t) / AUC(0-inf): mean ± SD; for AUC(0-t): read-out: AUC0-t, serum (converted); for AUC(0-inf): read-out: AUC0-∞, serum (converted)
Description: To assess pharmacokinetic profile and tissue penetration of 2 and 3, the male Wistar rats were a single intraperitoneal (i.p.) injected with these compounds dissolved in tween (vehicle volume 1 mL/kg) at a dose of 0.3 mg/kg, determined in behavioral studies. The animals were killed by decapitation under deep anesthesia (i.p. injection of 50 mg/kg ketamine and 7.5 mg/kg xylazine) at 5, 15, 30, 60, 120 and 240 min after compounds administration (four animals per time point) and blood samples (approximately 5–6 mL) were collected into tubes. Moreover, five tissues (i.e., brain, heart, lungs, kidneys and liver) were harvested, rinsed with cold saline, and the wet weights determined. Blood was allowed to clot for 15–20 min at room temperature and then centrifuged (3000 rpm for 10 min). The obtained serum and tissues were stored frozen at −80 °C until analysis.
The concentrations of both test compounds in serum and tissue homogenates were measured by a reverse-phase high-performance liquid chromatography method with ultraviolet detection (HPLC/UV). […] The mobile phase consisted of methanol/10 mM potassium dihydrogen phosphate buffer, pH 4.6/acetonitrile (51/40/9, v/v/v). The isocratic separation was performed at 1.0 mL/min constant flow-rate with column temperature maintained at 38 °C. The detection wavelength was set at 206 nm for 2 and at 215 nm for 3. […] EZChrome Elite v. 3.3.2 software (VWR, Darmstadt, Germany) was used for data acquisition.
Before analysis, tissue samples were thawed, placed in four volumes (w/v) of phosphate-buffered saline (PBS, pH 7.4) and homogenized using a MICCRA D-1 homogenizer (ART Prozess- & Labortechnik GmbH & Co., Heitersheim, Germany). To isolate 2 or 3, 500 µL of rat serum or tissue homogenate containing this compound were mixed with a 20-μL volume of IS solution (50 ng/mL or 200 ng/g in methanol). As an IS for compound 2 quantification, compound 3 was used and vice versa.
The samples were alkalized with 50 μL of 4 M sodium hydroxide solution, vortex-mixed, and extracted with 1 mL of ethyl acetate/hexane (30/70, v/v) mixture on a shaker (VXR Vibrax, IKA, Legnica, Poland) for 20 min. After centrifugation (Eppendorf, Mini Spin Plus, Hamburg, Germany), the organic layers were transferred into new tubes containing 100 μL of methanol and 0.1 M sulfuric acid (10/90, v/v) mixture. Then, the samples were shaken and centrifuged again. Finally, 20–90 μL of each acidic layer was injected into the HPLC system.
Other pharmacokinetic parameters were determined on subjecting the concentration–time data to non-compartmental analysis using Phoenix WinNonlin 8.2 software (Pharsight Corporation, a Certara Company, Princeton, NJ, USA).

[3] = test system: Salmonella Typhimurium TA100; type: cell-based
Description: The used Salmonella Typhimurium TA100 strain has base pair substitution (hisG46 mutation, which target is GGG). […] The occurrence of revertants was visualized by pH indicator dye which was present in the bacterial medium.

[4] = biological target: T1, 5-HT2A receptor (Homo sapiens, UniProt P28223); assay: Functional assay for 5-HT2A receptor (aequorin, CHO-K1 cells); type: cell-based
T1 construct: expressed in transfected cells; host or cells: CHO-K1
T1 sequence (P28223 whole entry): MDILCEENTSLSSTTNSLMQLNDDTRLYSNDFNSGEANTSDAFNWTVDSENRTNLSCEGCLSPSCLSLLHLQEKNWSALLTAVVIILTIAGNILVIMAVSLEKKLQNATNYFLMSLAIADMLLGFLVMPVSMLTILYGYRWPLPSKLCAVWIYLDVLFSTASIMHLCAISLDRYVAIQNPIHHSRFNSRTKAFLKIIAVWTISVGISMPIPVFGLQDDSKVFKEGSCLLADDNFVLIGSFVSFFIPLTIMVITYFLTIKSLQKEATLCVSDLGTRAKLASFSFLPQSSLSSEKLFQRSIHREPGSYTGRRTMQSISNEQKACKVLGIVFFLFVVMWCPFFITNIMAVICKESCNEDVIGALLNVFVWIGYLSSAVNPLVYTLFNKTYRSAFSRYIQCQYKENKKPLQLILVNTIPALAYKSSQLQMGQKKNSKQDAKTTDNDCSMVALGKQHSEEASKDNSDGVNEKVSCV
Description: Test compounds were dissolved in dimethyl sulfoxide (DMSO) at a concentration of 10 mM. Serial dilutions were prepared in a 96-well microplate in assay buffer and eight concentrations were tested. A cellular aequorin-based functional assay was performed with recombinant CHO-K1 cells expressing mitochondrially targeted aequorin, human GPCR and the promiscuous G protein α16 for 5-HT2A. […] After thawing, cells were transferred to assay buffer (DMEM/HAM’s F12 with 0.1% protease-free BSA) and centrifuged. The cell pellet was resuspended in assay buffer and coelenterazine h was added at final concentrations of 5 μM. […] After 1 h of incubation, 50 μL of the cells suspension was dispensed using automatic injectors built into the plate reader POLARstar Omega, (BMG Labtech, Ortenberg, Germany) onto a white opaque 96-well microplates preloaded with test compounds. Immediate light emission generated following calcium mobilization was recorded for 30 s. In antagonist mode, after 30 min of incubation, the reference agonist was added to the above assay mix and light emission was recorded again. The final concentration of the reference agonist was equal to EC80.

[5] = male, Wistar, rat, brain (vs serum), 0.3 mg/kg, AUC0-t tissue / AUC0-t serum, read-out: Kp, brain
[6] = male, Wistar, rat, brain, ip, 0.3 mg/kg, rat, read-out: elimination half-life, brain tissue
[7] = male, Wistar, rat, heart / serum, 0.3 mg/kg, AUC0-t tissue / AUC0-t serum, read-out: Kp, heart
[8] = male, Wistar, rat, heart, ip, 0.3 mg/kg, rat, read-out: Tmax, heart (converted)
[9] = male, Wistar, rat, kidneys (vs serum), 0.3 mg/kg, AUC0-t tissue / AUC0-t serum, read-out: Kp, kidneys
[10] = male, Wistar, rat, kidneys, ip, 0.3 mg/kg, rat, read-out: Tmax, kidneys (converted)
[11] = male, Wistar, rat, liver (vs serum), 0.3 mg/kg, AUC0-t tissue / AUC0-t serum, read-out: Kp, liver
[12] = male, Wistar, rat, liver, ip, 0.3 mg/kg, rat, read-out: Tmax, liver (converted)
[13] = male, Wistar, rat, lungs / serum, 0.3 mg/kg, AUC0-t tissue / AUC0-t serum, read-out: Kp, lungs
[14] = male, Wistar, rat, lungs, ip, 0.3 mg/kg, rat, read-out: Tmax, lungs (converted)
[15] = male, Wistar, rat, serum, ip, 0.3 mg/kg, read-out: CL/F (converted)
[16] = male, Wistar, rat, serum, ip, 0.3 mg/kg, rat, read-out: Tmax, serum (converted)
[17] = male, Wistar, rat, serum, ip, 0.3 mg/kg, rat, read-out: t1/2λz, serum

Row | SMILES | Kp, brain ([2]; AUC0-t tissue / AUC0-t serum) | MRT ([2]; male, Wistar, ip) | Kp [2, 5] | half-life [2, 6] | Kp [2, 7] | Tmax [2, 8] | Kp [2, 9] | Tmax [2, 10] | Kp [2, 11] | Tmax [2, 12] | Kp [2, 13] | Tmax [2, 14] | CL/F [2, 15] | Tmax [2, 16] | half-life [2, 17] | Cmax ([2]; male, Wistar, serum, ip, rat) | AUC(0-t) ([2]; male, Wistar, serum, ip, rat) | AUC(0-inf) ([2]; male, Wistar, serum, ip, rat) | CL/F ([2]; 0.3 mg/kg) | Vz/F ([2]; 0.3 mg/kg) | also measured
1 | CCC(Oc1cccc(Cl)c1Cl)c1nc(N)nc(N2CCN(C)CC2)n1 (racemic) [Compound 2, (RS)-4-[1-(2,3-dichlorophenoxy)propyl]-6-(4-methylpiperazin-1-yl)-1,3,5-triazin-2-amine] | 2.69 | 90.1 min | 2.03 | 149 min | 2.3 | 5 min | 16.5 | 15 min | 14.4 | 15 min | 8.54 | 5 min | 515 mL/min/kg | 15 min | 116 min | 5.2 ± 2.24 ng/mL | 7.56 ng·h/mL | 8.85 ng·h/mL | 514.5 ± 165 mL/min/kg | 81 L/kg and 80.99 ^a ± 18.22 L/kg | increase of LDH leakage [1]: 86%; Kp, kidneys ([2]; AUC0-t tissue / AUC0-t serum): 16.52; AUC0-t, brain ([2]; rat): 1219.94 ± 368.79 ng·min/mL or ng·min/g; AUC0-t, liver ([2]; rat): 6523.60 ± 4997.28 ng·min/mL or ng·min/g; AUC0-t, lungs ([2]; rat): 3870.66 ± 680.07 ng·min/mL or ng·min/g; Cmax, heart ([2]; rat): 8.90 ± 8.15 ng/mL or ng/g; Cmax, kidneys ([2]; rat): 65.73 ± 34.94 ng/mL or ng/g; Cmax, liver ([2]; rat): 115.22 ± 93.46 ng/mL or ng/g; Cmax, lungs ([2]; rat): 54.20 ± 21.61 ng/mL or ng/g; AUC0-t, heart ([2]; rat, 0.3 mg/kg): 1040.7 ng·min/mL or ng·min/g and 1040.74 ± 448.65 ng·min/mL or ng·min/g; AUC0-t, kidneys ([2]; rat, 0.3 mg/kg): 7488.1 ng·min/mL or ng·min/g and 7488.06 ± 4372.92 ng·min/mL or ng·min/g; Cmax, brain ([2]; rat, 0.3 mg/kg): 11.63 ± 3.13 ng/mL or ng/g; t1/2λz, serum ([2]; rat, 0.3 mg/kg): 116 min and 116.18 ^a ± 17.14 min; Binomial B-Value ([3]; 1 µM): 0.2601; Number of Revertants ± SD ([3]; 1 µM): 12.00 ± 7.55; Binomial B-Value ([3]; 10 µM): 0.5425; Number of Revertants ± SD ([3]; 10 µM): 13.33 ± 2.31; Emax ([4]; Table S2, read-out: 5-HT2A Antagonist mode Emax): 1%; Emax ([4]; read-out: 5-HT2AR Agonist Mode Emax): 21 ± 0.6%
2 | CCC(Oc1ccccc1)c1nc(N)nc(N2CCN(C)CC2)n1 (racemic) [Compound 3, (RS)-4-(4-methylpiperazin-1-yl)-6-(1-phenoxypropyl)-1,3,5-triazin-2-amine] | 2.03 | 79.3 min | 2.63 | 112 min | 2.49 | 5 min | 6.03 | 15 min | 10.5 | 5 min | 6.41 | 5 min | 587 mL/min/kg | 5 min | 76.7 min | 6.32 ± 5.03 ng/mL | 7.07 ng·h/mL | 8.53 ng·h/mL | 586 ± 298.7 mL/min/kg | 65 L/kg and 64.81 ± 21.78 L/kg | Kp, liver ([2]; AUC0-t tissue / AUC0-t serum): 10.54; Tmax ([2]; male, Wistar, rat, brain, ip, 0.3 mg/kg, rat, read-out: Tmax, brain (converted)): 5 min; AUC0-t, heart ([2]; rat): 1057.37 ± 285.41 ng·min/mL or ng·min/g; AUC0-t, kidneys ([2]; rat): 2557.08 ± 1084.42 ng·min/mL or ng·min/g; AUC0-t, lungs ([2]; rat): 2715.09 ± 1000.42 ng·min/mL or ng·min/g; Cmax, heart ([2]; rat): 21.83 ± 17.16 ng/mL or ng/g; Cmax, kidneys ([2]; rat): 41.25 ± 8.41 ng/mL or ng/g; Cmax, liver ([2]; rat): 129.62 ± 106.23 ng/mL or ng/g; Cmax, lungs ([2]; rat): 73.65 ± 63.94 ng/mL or ng/g; AUC0-t, brain ([2]; rat, 0.3 mg/kg): 859.1 ng·min/mL or ng·min/g and 859.08 ± 312.87 ng·min/mL or ng·min/g; AUC0-t, liver ([2]; rat, 0.3 mg/kg): 4467.2 ng·min/mL or ng·min/g and 4467.18 ± 2249.99 ng·min/mL or ng·min/g; Cmax, brain ([2]; rat, 0.3 mg/kg): 11.35 ± 6.93 ng/mL or ng/g; t1/2λz, serum ([2]; rat, 0.3 mg/kg): 77 min and 76.65 ± 18.07 min; Binomial B-Value ([3]; 1 µM): 0.0001; Number of Revertants ± SD ([3]; 1 µM): 0.33 ± 0.58; Binomial B-Value ([3]; 10 µM): 0.0324; Number of Revertants ± SD ([3]; 10 µM): 1.67 ± 1.53
